From patent publication US7968542B2, “Thiophene compounds and thrombopoietin receptor activators” (Nissan Chemical Industries, Ltd., priority 2005, dated 2011)

Each compound was assayed on Human bone marrow CD34+ cells (assay: Megakaryocyte colony stimulating activity (megakaryocyte colony forming method)). Details: drug concentration 0.1 μg/mL, 11 days.
Type: cell-based
Description: The action of the compounds of Synthetic Examples 1 to 43 of the present invention and Reference Synthetic Examples 29 and 30 on the proliferation, differentiation and maturation of megakaryocyte cells was measured by the megakaryocyte colony forming method using human bone marrow cells. Human bone marrow CD34^+ cells (Cambrex Bio Science Walkersville) were incubated on 2-well chamber slide for 11 days in a CO2 incubator (5% CO2, 37° C.) using MegaCult™-C (StemCell Technologies) containing 0.1% (v/v) of the compounds of Synthetic Examples dissolved in dimethyl sulfoxide. After dehydration and fixation, the cells were stained with an anti-glycoprotein IIb/IIIa antibody in accordance with the instruction by the manufacturer. The colonies consisting of at least 8 stained megakaryocyte cells in each well were counted under a microscope. The megakaryocyte colony counts in at least 2 wells were averaged.

Q: Which Megakaryocyte colony count does the source give for `CC(=NNC(=O)c1ccc(C(=O)NCc2cnc(C)cn2)s1)c1csc(-c2ccc(Cl)c(Cl)c2)c1O` [Synthetic Ex. 34, 5-{1-[5-(3,4-dichlorophenyl)-4-hydroxythiophen-3-yl]ethylidenehydrazinocarbonyl}thiophene-2-carboxylic acid (5-methylpyrazin-2-ylmethyl)amide] here?
A: 50

Q: With `CC(=NNC(=O)c1ccc(C(=O)NCc2ccno2)s1)c1csc(-c2ccc(Cl)c(Cl)c2)c1O` [Synthetic Ex. 35, 5-{1-[5-(3,4-dichlorophenyl)-4-hydroxythiophen-3-yl]ethylidenehydrazinocarbonyl}thiophene-2-carboxylic acid (isoxazol-5-ylmethyl)amide] as the compound, how does the Megakaryocyte colony count read?
A: 135

Q: For `COc1cc(CNC(=O)c2ccc(C(=O)NN=C(C)c3csc(-c4ccc(Cl)c(Cl)c4)c3O)s2)on1` [Synthetic Ex. 36, 5-{1-[5-(3,4-dichlorophenyl)-4-hydroxythiophen-3-yl]ethylidenehydrazinocarbonyl}thiophene-2-carboxylic acid (3-methoxyisoxazol-5-ylmethyl)amide], which Megakaryocyte colony count is on record?
A: 102

Q: How did the Megakaryocyte colony count turn out when `CC(=NNC(=O)c1ccc(C(=O)NCc2cc(C)n(C)n2)s1)c1csc(-c2ccc(Cl)c(Cl)c2)c1O` [Synthetic Ex. 37, 5-{1-[5-(3,4-dichlorophenyl)-4-hydroxythiophen-3-yl]ethylidenehydrazinocarbonyl}thiophene-2-carboxylic acid (1,5-dimethyl-1H-pyrazol-3-ylmethyl)amide] was run?
A: 81

Q: For `CC(=NNC(=O)c1ccc(C(=O)NCc2cnccn2)s1)c1csc(-c2ccc(Cl)c(Cl)c2)c1O` [Synthetic Ex. 38, 5-{1-[5-(3,4-dichlorophenyl)-4-hydroxythiophen-3-yl]ethylidenehydrazinocarbonyl}thiophene-2-carboxylic acid (pyrazin-2-ylmethyl)amide], which Megakaryocyte colony count is on record?
A: 66

Q: `CC(=NNC(=O)c1ccc(C(=O)NCc2cc[n+]([O-])cc2)s1)c1csc(-c2ccc(Cl)c(Cl)c2)c1O` [Synthetic Ex. 39, 4-[{5-(2-[1-{5-(3,4-dichlorophenyl)-4-hydroxythiophen-3-yl}ethylidene]hydrazinocarbonyl)thiophene-2-carboxamido}methyl]pyridine 1-oxide] was tested. Which Megakaryocyte colony count did it give?
A: 86

Q: `CC(=NNC(=O)c1ccc(C(=O)NCCCc2ccncc2)s1)c1csc(-c2ccc(Cl)c(Cl)c2)c1O` [Synthetic Ex. 40, 5-{1-[5-(3,4-dichlorophenyl)-4-hydroxythiophen-3-yl]ethylidenehydrazinocarbonyl}thiophene-2-carboxylic acid 3-(pyridin-4-yl)propylamide] was tested. Which Megakaryocyte colony count did it give?
A: 70

Q: How did the Megakaryocyte colony count turn out when `CC(=NNC(=O)c1ccc(C(=O)NCc2cncn2C)s1)c1csc(-c2ccc(C(F)(F)F)cc2)c1O` [Synthetic Ex. 41, 5-{1-[5-(4-trifluoromethylphenyl)-4-hydroxythiophen-3-yl]ethylidenehydrazinocarbonyl}thiophene-2-carboxylic acid (1-methyl-1H-imidazol-5-ylmethyl)amide] was run?
A: 41

Q: With `CC(=NNC(=O)c1ccc(C(=O)N2CCC(O)C2)s1)c1csc(-c2ccc(Cl)c(Cl)c2)c1O` (stereo not drawn) [Synthetic Ex. 42, 5-(3-hydroxypyrrolidine-1-carbonyl)thiophene-2-carboxylic acid {1-[5-(3,4-dichlorophenyl)-4-hydroxythiophen-3-yl]ethylidene}hydrazide] as the compound, how does the Megakaryocyte colony count read?
A: 90

Q: With `CC(=NNC(=O)c1ccc(C(=O)N2CCC(O)C2)s1)c1csc(-c2ccc(C(F)(F)F)cc2)c1O` (stereo not drawn) [Synthetic Ex. 43, 5-(3-hydroxypyrrolidine-1-carbonyl)thiophene-2-carboxylic acid {1-[5-(4-trifluoromethylphenyl)-4-hydroxythiophen-3-yl]ethylidene}hydrazide] as the compound, how does the Megakaryocyte colony count read?
A: 109

Same assay, conditions: drug concentration 1 μg/mL, 11 days

Q: For `CC(=NNC(=O)c1ccc(C(=O)NCc2ccno2)s1)c1csc(-c2ccc(Cl)c(Cl)c2)c1O` [Synthetic Ex. 35, 5-{1-[5-(3,4-dichlorophenyl)-4-hydroxythiophen-3-yl]ethylidenehydrazinocarbonyl}thiophene-2-carboxylic acid (isoxazol-5-ylmethyl)amide], which Megakaryocyte colony count is on record?
A: 153

Q: With `COc1cc(CNC(=O)c2ccc(C(=O)NN=C(C)c3csc(-c4ccc(Cl)c(Cl)c4)c3O)s2)on1` [Synthetic Ex. 36, 5-{1-[5-(3,4-dichlorophenyl)-4-hydroxythiophen-3-yl]ethylidenehydrazinocarbonyl}thiophene-2-carboxylic acid (3-methoxyisoxazol-5-ylmethyl)amide] as the compound, how does the Megakaryocyte colony count read?
A: 135
